Source: publication PMC5125089 (Lung cancer (Amsterdam, Netherlands), 2015)
Converted amounts (≈) assume the structure as drawn.

Key:
lung cancer = conditions: romidepsin monotherapy, previously treated lung cancer; cited from earlier work
histone H4 acetylation = experiment: Histone H4 acetylation status in PBMCs; type: in vivo, patients; conditions: for normalized H4 acetylation values, mean increase: P < 0.01
NSCLC cell lines = conditions: cited from earlier work
[1] = phase 1 monotherapy trial; cited from earlier work
EGFR pathway components = EGFR pathway components in skin biopsies; type: in vivo, patients; conditions: romidepsin monotherapy
histone H3 acetylation = experiment: Histone H3 acetylation status in PBMCs; type: in vivo, patients; conditions: for normalized H3 acetylation values, mean increase: P < 0.01
[2] = both 8 mg/m^2 and 10 mg/m^2 dose levels, P < 0.001

## C#Cc1cccc(Nc2ncnc3cc(OCCOC)c(OCCOC)cc23)c1 [erlotinib]
human, in vivo
  Acneiform Rash, Possible Relationship to Erlotinib: Y (7/7)
  Acute kidney injury, Possible Relationship to Erlotinib: Y (1/1)
  Anorexia, Possible Relationship to Erlotinib: Y (9/9)
  Diarrhea, Possible Relationship to Erlotinib: Y (9/11)
  Dry Skin, Possible Relationship to Erlotinib: Y (2/2)
  Fatigue, Possible Relationship to Erlotinib: Y (9/14)
  Mouth Blister, Possible Relationship to Erlotinib: Y (4/4)
  Nausea, Possible Relationship to Erlotinib: Y (4/14)
  Vomiting, Possible Relationship to Erlotinib: Y (5/14)
  Weight Loss, Possible Relationship to Erlotinib: Y (2/3)
  ↑ Glucose, Possible Relationship to Erlotinib: Y (1/3)
  ↓ Hgb/Anemia, Possible Relationship to Erlotinib: Y (2/5)
In vivo
  Dyspepsia, Possible Relationship to Erlotinib: N
  Sinus tachycardia, Possible Relationship to Erlotinib: N
  ↓ Potassium, Possible Relationship to Erlotinib: N

## C/C=C1\NC(=O)[C@H]2CSSCC/C=C/[C@H](CC(=O)N[C@H](C(C)C)C(=O)N2)OC(=O)[C@H](C(C)C)NC1=O [romidepsin]
Lung cancer
  patients who achieved stable disease: 9 of 18
Histone H4 acetylation; 8 mg/m^2 cohort
  normalized H4 acetylation values, mean increase: 3.20 ± 2.40
Histone H4 acetylation; 10 mg/m^2 cohort
  normalized H4 acetylation values, mean increase: 2.26 ± 0.47
Histone H4 acetylation; [2]
  effect on H4 histone acetylation: concomitant increase
NSCLC cell lines
  IC50 against NSCLC cell lines in vitro: 2.25 ng/mL (≈ 4.16 nM)
[1]
  dose-limiting toxicities: grade 3 thrombocytopenia and fatigue
In combination with erlotinib 150 mg orally daily, Days 1, 8, and 15 every 28 days, IV, with multi-drug antiemetic prophylaxis
  maximum tolerated dose of romidepsin: 8 mg/m^2
EGFR pathway components
  effect on expression of EGFR, MAPK, or phospho-MAPK: no discernible effect
EGFR pathway components; day 3 pre-erlotinib, P = 0.09
  effect on expression of phosphorylated EGFR: trend toward decreased expression
Histone H3 acetylation; 8 mg/m^2 cohort
  normalized H3 acetylation values, mean increase: 2.10 ± 0.71
Histone H3 acetylation; 10 mg/m^2 cohort
  normalized H3 acetylation values, mean increase: 2.18 ± 1.09
Histone H3 acetylation; [2]
  effect on H3 histone acetylation: concomitant increase
